Results published in patent US20250205195A1, “BENZYLOXY-BENZYLAMINYL AMINO ACID DERIVATIVE FOR ADJUSTING TSLP/TSLPR SIGNAL TRANSMISSION” (AMTIXBIO CO., LTD., priority 2021, published 2025).

Experiments:
interleukin-4 (IL-4) = experiment: PMA/ionomycin-induced interleukin-4 in RBL-2H3 cells (ELISA); type: cell-based, rat; settings: RBL-2H3 cells, 0, 1, 2, 4 and 8 µg/mL, 24 h
Method: Rat basophilic leukemia cells RBL-2H3 (obtained from the Korean Cell Line Bank) were seeded at an initial density of 2×10^5 cells/well in a 48-well plate and cultured at 37° C. for 16 to 24 hours. Subsequently, compound 27 of the present invention was added to the RBL-2H3 cell culture medium at final concentrations of 0, 1, 2, 4, and 8 µg/mL and the cells were cultured at 37° C. for 1 hour. Next, to induce interleukin-4, the culture medium was treated with PMA ([…], Sigma-Aldrich, USA) and ionomycin (Sigma-Aldrich, USA) to final concentrations of 50 ng/mL and […], respectively, and the cells were cultured for an additional 24 hours at 37° C. The culture supernatant was then collected, and the amount of induced interleukin-4 from RBL-2H3 cells was determined using an ELISA kit (LABIS KOMA, South Korea) according to the manufacturer's instructions. FIG. 2 (a) represents the results.

[1] = tested on: HDM-induced atopic dermatitis mice; experiment: House dust mite (HDM) atopic dermatitis mouse model, dermatitis score; type: in vivo, Nc/Nga mice; settings: topical or oral, 10 days after administration, vs control group
Text: Nc/Nga mice (Supplier: Central Animal Laboratory, South Korea, Male, 8 weeks old) were used, with 8 mice per group. The experimental animals were allowed free access to Purina Nestle feed (Switzerland) and water. The mice were shaved using clippers and depilatory cream one day (day 0) before applying Df cream (Dermatophagoides farina cream, Biostir AD, Biostir Incorporation). Df cream was applied to the mouse dorsal area twice a week for 5 weeks to induce atopic dermatitis. After confirming lesions in all mice, compound 27 of the present invention was administered topically or orally for 3 weeks (21 days) from 2 weeks after Df cream application. For topical administration, compound 27 was mixed with 100% ethanol to achieve concentrations of 0.3%, 1%, or 3%, and applied once daily. It was applied to both ears (25 μL each) and the dorsal area (70 μL). 100% ethanol was used as the topical vehicle. For oral administration, compound 27 was administered at doses of 25 mpk (once daily, QD), 50 mpk (QD), or 10 mpk (twice daily, BID). […]
Skin indicators were recorded through visual observation once a week (on days 0, 7, 14, 21, 28, and 36). […] Each item was scored as follows: no symptoms (0 points), mild symptoms (1 point), moderate symptoms (2 points), and severe symptoms (3 points). The total score was calculated by summing up scores for all items.

[2] = tested on: DNCB-induced atopic dermatitis mice; experiment: DNCB-induced atopic dermatitis mouse model; type: in vivo, ICR mice; settings: vs DNCB-treated group
Method: ICR mice (Orient Bio Inc., male, 4 weeks old) were used, with four mice per group. The mice were acclimatized for one week under controlled conditions (23±2° C., humidity 55±10%, 12-hour light/dark cycle, animal facility at Sungkyunkwan University) and were shaved using clippers and depilatory cream before drug treatment. Following the conventional method, 1% DNCB (2,4-dinitrochlorobenzene, Sigma-Aldrich Co., St. Louis, USA) (200 l) was applied to the dorsal area of the mice every 2 days, four times a week for one week. Subsequently, 0.5% DNCB (200 l) was applied again at 2-day intervals, eight times, to induce atopic dermatitis (Ara, J., Mol Cell Toxicol 2019). One week after DNCB treatment, signs of lesions were confirmed in all mice. Then, the mice were topically administered with the compound 27 of the present invention, dissolved in sterile water at a concentration of 1% (w/v), starting from the point of 0.5% DNCB application, once daily for two weeks. The experimental animals were supplied with powdered feed (Purina, Switzerland), and water and feed were freely available throughout the experimental period. Symptoms associated with atopic dermatitis, such as erythema, edema, scaling, crusting, lichenification, inflammation, bleeding and skin dryness, were observed and recorded according to the Scoring Atopic Dermatitis (SCORAD) index in Table 2.
Using the Mosquito Blood Collection System, blood was drawn from the retro-orbital plexus, and serum was separated. Skin tissue proteins were extracted using a homogenizer in 0.2% PBS (phosphate buffer saline). To measure the concentration of IgE, an IgE ELISA kit (Shibayagi, Japan) was used following the manufacturer's instructions, and analysis was performed using an ELISA reader. The concentrations of TNF-α, IL-4, CCL22/MDC, MMP-12, and S100A9 were measured using Luminex® Assays (R&D Systems, USA).
Skin tissues from the mouse dorsal area were separated and fixed in 10% formalin (10% Neutral Buffered Formalin, Kang Dong Trading, South Korea) for 72 hours. The fixed tissues were washed with water for about 1 hour and then processed into paraffin blocks. The paraffin blocks were sectioned into 8 m slices using a microtome, followed by staining with Harris's hematoxylin solution. Subsequently, the sections were treated with 1% HCl-alcohol, neutralized with 0.5% ammonia solution, and stained with Eosin solution. Next, dehydration was performed using alcohol and xylene, and the sections were mounted on slides using Canada balsam. FIGS. 7 (a) and (b) represent the results.
To determine the concentrations of IgE and TSLP in mouse serum, IgE ELISA kit (Shibayagi, JP) and TSLP ELISA kit (R&D systems, USA) were used following the manufacturer's instructions. As shown in FIGS. 8 (a) and (b), the serum concentrations of IgE and TSLP increased in the DNCB-treated group.
Proteins were extracted from skin tissues of atopic dermatitis mice on the dorsal area, and the levels of TNF-α, IL-1β, CCL22/MDC, IL-4, MMP-12, and S100A9 were measured using Luminex® Assays (R&D systems, USA).

Compound: CCC(NC)C(=O)NCc1ccc(OCc2ccc(C(F)(F)F)cc2)cc1 (racemic) [Compound 27, (R)/(S)-2-(methylamino)-N-(4-((4-trifluoromethyl)benzyl)oxy)benzyl)butanamide]
- amount of induced interleukin-4 (interleukin-4 (IL-4)): decreased proportionally
- improvement of skin lesions (Modified SCORAD score) [1]: superior effect
- CCL22/MDC level in skin tissue ([2]; Luminex): significant decrease
- IL-1β level in skin tissue ([2]; Luminex): significant decrease
- IL-4 level in skin tissue ([2]; Luminex): significant decrease
- MMP-12 level in skin tissue ([2]; Luminex): significant decrease
- S100A9 level in skin tissue ([2]; Luminex): significant decrease
- TNF-α level in skin tissue ([2]; Luminex): significant decrease
- symptoms of dermatitis (SCORAD index) ([2]; topical 1% (w/v), once daily, two weeks): significant reduction
- expression of inflammatory cells (H&E, skin tissue) ([2]; topical 1% (w/v)): significant decrease
- serum IgE concentration ([2]; topical 1% (w/v)): decrease
- serum TSLP concentration ([2]; topical 1% (w/v)): decrease
- thickness of the epidermal layer ([2]; topical 1% (w/v)): significant reduction
